Experimental data published in article PMC12686243, “Synthesis and preclinical evaluation of FAP-targeting radiotracers for PET and optical imaging” (EJNMMI Radiopharmacy and Chemistry, 2025).

Legend:
[1] = biological target: T1, hFAP (hFAP-HT1080 xenograft tissue sections) (Homo sapiens, UniProt Q12884); assay: real-time binding to frozen hFAP-HT1080 xenograft tissue sections; conditions: ^67Ga-labeled
T1 construct: expressed in transfected cells; host or cells: HT1080 (human fibrosarcoma), lentiviral transduction
T1 sequence (Q12884 1-760): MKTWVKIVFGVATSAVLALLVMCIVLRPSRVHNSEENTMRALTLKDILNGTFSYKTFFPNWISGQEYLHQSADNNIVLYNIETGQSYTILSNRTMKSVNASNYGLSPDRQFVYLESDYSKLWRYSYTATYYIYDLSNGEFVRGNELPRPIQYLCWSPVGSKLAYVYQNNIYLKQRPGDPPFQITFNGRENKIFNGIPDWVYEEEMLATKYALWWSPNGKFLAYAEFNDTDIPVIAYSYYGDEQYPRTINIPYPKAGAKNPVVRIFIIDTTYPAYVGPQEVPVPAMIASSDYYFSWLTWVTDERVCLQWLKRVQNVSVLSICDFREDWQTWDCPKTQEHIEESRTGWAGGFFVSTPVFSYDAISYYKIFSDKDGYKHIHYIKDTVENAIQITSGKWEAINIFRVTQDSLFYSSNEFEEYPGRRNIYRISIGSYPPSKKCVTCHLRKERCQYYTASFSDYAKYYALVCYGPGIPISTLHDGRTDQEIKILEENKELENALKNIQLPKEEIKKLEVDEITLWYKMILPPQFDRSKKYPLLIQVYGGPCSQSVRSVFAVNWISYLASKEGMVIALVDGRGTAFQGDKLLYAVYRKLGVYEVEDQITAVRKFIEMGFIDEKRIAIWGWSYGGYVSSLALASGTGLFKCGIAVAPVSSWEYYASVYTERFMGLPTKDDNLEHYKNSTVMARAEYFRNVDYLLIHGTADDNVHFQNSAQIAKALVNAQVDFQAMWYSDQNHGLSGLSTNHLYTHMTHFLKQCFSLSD
Protocol: HT1080 cells were chosen as cellular and xenograft models, due to their similarity to FAP expressing fibroblasts and its origin (fibrosarcoma). For that purpose, HT1080 wild-type cells (WT-HT1080; European Collection of Authenticated Cell Cultures, ECACC, United Kingdom) were used as control. Cells were cultured in DMEM with GlutaMax (#31966021, Gibco), supplemented with 10% v/v fetal bovine serum (#S0615 Sigma Aldrich, Germany), 1% penicillin/streptomycin (#15140–122, Gibco, USA), 1% Non-essential amino acids under normoxic (5% CO2; 37 °C) conditions. Upon reaching ~ 90% confluency, cells were passaged. Typically, cultures were discarded after ~ 20 passages. […] Prior to in vitro experiments, cells were washed, trypsinized (0.05% Trypsin–EDTA, Gibco, USA), taken up in medium and an aliquot was counted using a CASY1 cell counter (Model TT, Schaerfe System, Reutlingen, Germany). […]
To determine binding kinetics (association rate constant ka, dissociation rate constant kd, and thermodynamic dissociation constant KD), real-time assay systems (LigandTracer Yellow/White for radioactivity and Green with Red/NIR + and NIR + + /IR detectors for fluorescence; Ridgeview Instruments AB, Sweden) were utilized. In a 100 mm petri dish, cells or tissue sections in medium (3–4 mL total volume), are located on one side, while the radioactive or fluorescent signal is detected on the opposite, elevated side. […]

stability in human serum = format: in vitro ADME; conditions: 37 °C; for degradation in human serum: four-hour time point; for fraction of intact tracer: human serum, after 24 h
Protocol: Stability testing in human serum (Sigma Aldrich, Darmstadt, Germany) was carried out by incubation of the ^67Ga-labeled radiotracer at 37 °C. After defined time points an aliquot was withdrawn and the serum proteins precipitated, by dilution with “supersol” (20% v/v ethanol, 5% v/v 5 mM EDTA, 0.5% v/v Triton X-100, 0.1% m/v saponin in aqueous solution). After centrifugation, the supernatant was analyzed by radio-HPLC.

[2] = biological target: T2, hFAPα, recombinant protein (Homo sapiens, UniProt Q12884); assay: fluorometric enzyme inhibition assay for FAP; format: biochemical; conditions: Morrison equation for tight binding inhibitors; substrate Ala-Pro-AMC; mean ± SD
T2 construct: purchased
T2 sequence (Q12884 1-760): T1 sequence (Q12884 1-760)
Protocol: Affinity towards FAP was tested using a commercially available fluorometric assay. At the day of the experiment, all tested compounds were diluted in assay buffer (DPP assay buffer, BPS Bioscience, San Diego, CA, USA,) in a 1:1 dilution series, resulting in eleven concentrations, ranging from 2000 nM to 1.950 nM, equal to 200 nM to 0.195 nM per well. The substrate Ala-Pro-AMC (BPS Bioscience, concentration per well: 5 μM, Km = 244 μM (Edosada et al. [2006])) was pipetted along with the inhibitor into a 96-well plate. Subsequently, the enzyme (hFAPα, recombinant protein) was dissolved in assay buffer and added to the wells. The final concentration of DMSO per well was 0.2%. The 96-well plate was immediately loaded into a multimode plate reader (Biotek Cytation 5, Agilent, Santa Clara, CA, USA). The fluorescence intensity for each well was measured over a time course of 30 min with measurement intervals of 15 s, an excitation wavelength of 360 ± 20 nm and an emission wavelength of 450 ± 20 nm. Data (relative fluorescence units, RFU) over the total measurement time was analyzed by linear regression. The slope of the resulting graphs was analyzed over the inhibitor concentration. The enzyme inhibition constant Ki was calculated using the Morrison equation for tight binding inhibitors (Williams and Morrison [1979]). […]

[3] = biological target: T3, human recombinant dipeptidylpeptidase IV (Homo sapiens, UniProt P27487); assay: fluorometric enzyme inhibition assay for DPPIV; format: biochemical
T3 construct: purchased Cayman Chemical
Protocol: The affinity towards DPPIV was determined using a commercially available inhibitor screening assay kit (Cayman Chemical, USA). The assay was performed according to the manufacturer’s instructions, and the data was analyzed as described above.

[4] = biological target: T4, hFAP (vital hFAP-HT1080 cells) (Homo sapiens, UniProt Q12884); assay: real-time binding (LigandTracer) to vital hFAP-HT1080 cells; conditions: fluorescent vs radioactive detection
T4 construct: expressed in transfected cells; host or cells: HT1080 (human fibrosarcoma), lentiviral transduction
T4 sequence (Q12884 1-760): T1 sequence (Q12884 1-760)
Protocol: To determine binding kinetics (association rate constant ka, dissociation rate constant kd, and thermodynamic dissociation constant KD), real-time assay systems (LigandTracer Yellow/White for radioactivity and Green with Red/NIR + and NIR + + /IR detectors for fluorescence; Ridgeview Instruments AB, Sweden) were utilized. In a 100 mm petri dish, cells or tissue sections in medium (3–4 mL total volume), are located on one side, while the radioactive or fluorescent signal is detected on the opposite, elevated side. Rotation on an inclined base in set intervals (30 s) allows continuous measurement of signal in the target (cells/tissue) against background area (no cells/tissue). Experiments were performed at room temperature, using CO2-independent medium, usually with 0.5–1% w/v bovine serum albumin, (#1ETA, Carl Roth, Germany). Association was determined through incubation with two distinct concentrations (between 1–5 and 4.5–10 nM, 60 min each, additive) for each compound. For that purpose, the same ligand preparation was typically employed for radioactive and fluorescent detection. This was followed by replacement with fresh medium and observation of dissociation for at least 2 h. Additionally, the dissociation rate constant was further investigated beyond 6 h, either using fluorescent detection or via gallium-67 (t1/2: 78.3 h). This approach provides reliable kinetic measurements in a 1:1 interaction setting, as previously shown (Onell and Andersson [2005]).
Binding data was evaluated using TraceDrawer (1.9.2, Ridgeview Instruments AB, Sweden). Traces were imported, potential spikes (> 100% sudden signal increases over previous datapoints) removed and each trace was normalized to its own baseline (= 0%) and highest value (= 100%, typically at the end of the second association phase). This allows comparing data across experiments and ultimately global fitting, without differences, e.g. of molar activity, affecting it. Typically, at least 3 individual traces per ligand, substrate and modality were recorded. Data was fitted in TraceDrawer using a 1:1 interaction model, with/without accounting for bulk effect. A 1:1 interaction is the simplest model, as it describes the binding of a ligand at a constant concentration to the target, with each one molecule of ligand binding to one molecule of target.

[5] = test system: hFAP-HT1080 and WT-HT1080 xenografts; assay: in vivo fluorescence imaging of xenograft-bearing mice; parameters: species or system nude mice
Excerpt: Female athymic NMRI-nude mice (Rj:NMRI-Foxn1nu, Janvier Labs, France or Charles River, Germany) between 8 and 20 weeks of age were used. Subsequently, the prepared cells (1.0–2.0 × 10^6 hFAP/WT-HT1080 per animal) were subcutaneously injected into the right and left thigh, respectively. Xenograft tissue for real-time binding experiments was derived from animals injected with both target-positive and negative cells, however only showing growth of one tumor entity. When approaching endpoints, mice were anesthetized and euthanized. The tumor was quickly removed, frozen in − 45 °C 2-methylbutane and stored in sealed tubes at − 80 °C.
Optical imaging was performed using a multimodal IVIS-CT (Perkin Elmer, USA). Compounds were injected [0.09 mg/kg (n = 1)/0.33 mg/kg (n = 3) for NODAGA-FAP647; 0.17 mg/kg (n = 3) for NODAGA-FAP800, diluted in 150 µL of sterile 0.9% NaCl solution] into the lateral tail vein, either directly or via catheter. Fluorescence imaging started ~ 2 min post injection for 2–3 h, with 1 min, 3–5 min and 10 min intervals, along with a white-light image. Additional scans were performed after 24 h and, if applicable, later. The fluorescence of the respective fluorophore was captured (NODAGA-FAP647: λEx/Em = 640/680 nm, NODAGA-FAP800: λEx/Em = 745/800 nm). Emitted fluorescence intensity was analyzed (Perkin Elmer, Living Image 4.7.4) in raw data images.

T3 sequence (P27487 whole entry): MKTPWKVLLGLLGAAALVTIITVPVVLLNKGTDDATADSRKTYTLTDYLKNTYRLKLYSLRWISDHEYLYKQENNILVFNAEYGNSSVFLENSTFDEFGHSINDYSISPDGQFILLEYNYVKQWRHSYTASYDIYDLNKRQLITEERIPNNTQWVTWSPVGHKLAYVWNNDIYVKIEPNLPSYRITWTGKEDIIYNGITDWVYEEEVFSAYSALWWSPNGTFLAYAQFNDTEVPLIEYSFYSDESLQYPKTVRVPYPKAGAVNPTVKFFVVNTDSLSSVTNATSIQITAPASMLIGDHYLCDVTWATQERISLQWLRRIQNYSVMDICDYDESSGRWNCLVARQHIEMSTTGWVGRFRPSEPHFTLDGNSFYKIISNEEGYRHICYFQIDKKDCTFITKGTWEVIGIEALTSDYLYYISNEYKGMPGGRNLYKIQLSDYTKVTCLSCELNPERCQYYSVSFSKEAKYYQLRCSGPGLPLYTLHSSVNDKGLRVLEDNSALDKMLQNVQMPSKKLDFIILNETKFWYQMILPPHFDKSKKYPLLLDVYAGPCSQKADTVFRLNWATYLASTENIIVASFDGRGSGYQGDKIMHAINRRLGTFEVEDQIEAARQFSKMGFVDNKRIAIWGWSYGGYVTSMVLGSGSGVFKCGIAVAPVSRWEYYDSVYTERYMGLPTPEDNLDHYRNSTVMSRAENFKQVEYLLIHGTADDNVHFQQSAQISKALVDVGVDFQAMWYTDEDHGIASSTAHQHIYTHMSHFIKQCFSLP

Row | Ki [2] | IC50 [3] | faster association with fluorescent compared to radioactive detection [4] | faster dissociation with fluorescent compared to radioactive detection [4] | ratio hFAP-HT1080/muscle fluorescence ([5]; 120 min post injection) | ratio hFAP/WT-HT1080 tumor fluorescence ([5]; 120 min post injection) | fluorescence in hFAP-HT1080 tumor higher than in WT-HT1080 tumor or muscle ([5]; 24 h post injection) | reduction of fluorescence signal in hFAP-HT1080 tumor ([5]; after 24 h post injection) | WT-HT1080 to muscle ratio ([5]; over the imaging period) | time to plateau of fluorescence in hFAP-HT1080 tumor ([5]; post injection) | Structure (SMILES) | Kd [1] | degradation in human serum (stability in human serum) | fraction of intact tracer (stability in human serum)
1 | – | – | – | – | – | – | – | – | – | – | CN(CCCN1CCN(C(=O)[C@H](CCCCNC(=O)CC[C@H](C(=O)[O-])N2CCN(CC(=O)[O-])CCN(CC(=O)[O-])CC2)NC(=O)CCOCCOCCOCCOCCNC(=O)CCCCCN2C(=CC=C3CCCC(C=CC4=[N+](CCCCS(=O)(=O)[O-])c5ccc(S(=O)(=O)O)cc5C4(C)C)=C3Oc3ccc(S(=O)(=O)O)cc3)C(C)(C)c3cc(S(=O)(=O)O)ccc32)CC1)c1ccc2nccc(C(=O)NCC(=O)N3CC(F)(F)C[C@H]3C#N)c2c1.[67Ga+3] [[^67Ga]Ga-NODAGA-FAP800] | 0.018 nM | no degradation | 22%
2 | – | – | – | – | – | – | – | – | – | – | CN(CCCN1CCN(C(=O)[C@H](CCCCNC(=O)CC[C@H](C(=O)[O-])N2CCN(CC(=O)[O-])CCN(CC(=O)[O-])CC2)NC(=O)CCOCCOCCOCCOCCNC(=O)CCCCC[N+]2=C(C=CC=CC=C3N(CCCS(=O)(=O)O)c4ccc(S(=O)(=O)O)cc4C3(C)C)C(C)(CCCS(=O)(=O)O)c3cc(S(=O)(=O)[O-])ccc32)CC1)c1ccc2nccc(C(=O)NCC(=O)N3CC(F)(F)C[C@H]3C#N)c2c1.[67Ga+3] (stereo partly shown) [[^67Ga]Ga-NODAGA-FAP647] | 0.025 nM | no degradation | 56%
3 | 0.343 ± 0.153 nM | > 10000 nM | ~ 50% | ~ 30% | ~ 1.9 | ~ 2.2 | 60% | 43% | ~ 1 | ~ 20 min | CN(CCCN1CCN(C(=O)[C@H](CCCCNC(=O)CC[C@H](C(=O)O)N2CCN(CC(=O)O)CCN(CC(=O)O)CC2)NC(=O)CCOCCOCCOCCOCCNC(=O)CCCCCN2/C(=C/C=C3\CCCC(/C=C/C4=[N+](CCCCS(=O)(=O)[O-])c5ccc(S(=O)(=O)O)cc5C4(C)C)=C3Oc3ccc(S(=O)(=O)O)cc3)C(C)(C)c3cc(S(=O)(=O)O)ccc32)CC1)c1ccc2nccc(C(=O)NCC(=O)N3CC(F)(F)C[C@H]3C#N)c2c1 [NODAGA-FAP800] | – | – | –
